Active and inactive are the calls of the source.

The nature of experiment [1]: HGIII-sPLA2 enzyme inhibition potency – biochemical, QFRET, IC50, dose response (AID 743457).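 Further: green fluorescence rise as the enzyme cleaves BODIPY PC-A2 in liposomes.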
Experiment [2] has as its system BJ. In words: BJ-TERT fibroblast viability loss – cell-based, RAS-independent, luminescence, dose response (AID 1933). Format: functional. Particulars: Homo sapiens.
For experiment [3], the system named is BJ. The experiment is described as follows: cells. Format: functional, cell-based. Particulars: Homo sapiens.
Experiment [4] concerns BJ. The experiment is described as follows: BJ-TERT-LT-ST fibroblast viability loss – cell-based, RAS-independent, luminescence, dose response (AID 1935).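 Further: BJ fibroblasts immortalized with TERT plus LT and ST oncogenes.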 Particulars: Homo sapiens. The experiment is classed as functional.
The nature of experiment [5]: DRD fibroblast viability loss – cell-based, non-viral oncogenic, luminescence, dose response (AID 1934). Format: functional. Particulars: Homo sapiens.
Experiment [6] deals with BJ. The experiment is described as follows: growth inhibition of engineered Ras-driven BJ cells – cell-based, alamar blue fluorescence, cherrypicked samples, dose response (AID 2631).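 Further: confirmatory dose-response assay in RAS-dependent BJ fibroblasts engineered with TERT, LT and ST, with cytotoxicity read by fluorescence.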 The experiment is classed as functional. Particulars: Homo sapiens.
Experiment [7] in a line: activation of miR-122 Renilla sensor silencing – cell-based, Huh7 psiCHECK-miR122, Renilla luciferase, cherry-picked, dose response (AID 651956).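 Further: huh7 hepatoma cells stably carrying a psiCHECK-2 miR-122 sensor plasmid; renilla luciferase signal reporting endogenous miR-122 activity after 48 h compound exposure.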 The experiment is classed as functional.
In experiment [8] the target is T1, Fatty acid synthase (Homo sapiens, UniProt P49327). In words: inhibition of human FAS-TE enzyme activity – biochemical, endpoint fluorescence intensity, uHTS hits, dose response (AID 624327).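 Further: fluorescence from hydrolysis of an O-methyl fluorescein acyl ester substrate by the enzyme.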 The experiment is classed as functional.
Experiment [9] addresses T1, Fatty acid synthase. In words: inhibition of human FAS-TE enzyme activity – biochemical, kinetic fluorescence intensity, dose response (AID 624326).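 Further: rate of fluorescence rise from hydrolysis of a fluorogenic O-methyl fluorescein ester substrate.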 Format: functional.
A short description of experiment [10]: general mammalian cell viability loss – inhibitor set, cherry-pick, set 2, cytotoxicity control for miR-122 modulator project, dose response (AID 720697). The experiment is classed as functional, cell-based.
Experiment [11] in a line: general mammalian cell viability loss – activator set, cherry-pick, cytotoxicity control for miR-122 modulator project, dose response (AID 720690).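 Further: HEK293T human cells scored for general mammalian cytotoxicity.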 Format: functional, cell-based.
The target in experiment [12] is T2, Long-chain-fatty-acid--AMP ligase FadD28 (Mycobacterium tuberculosis, UniProt P9WQ59).
T2 sequence (P9WQ59 whole entry): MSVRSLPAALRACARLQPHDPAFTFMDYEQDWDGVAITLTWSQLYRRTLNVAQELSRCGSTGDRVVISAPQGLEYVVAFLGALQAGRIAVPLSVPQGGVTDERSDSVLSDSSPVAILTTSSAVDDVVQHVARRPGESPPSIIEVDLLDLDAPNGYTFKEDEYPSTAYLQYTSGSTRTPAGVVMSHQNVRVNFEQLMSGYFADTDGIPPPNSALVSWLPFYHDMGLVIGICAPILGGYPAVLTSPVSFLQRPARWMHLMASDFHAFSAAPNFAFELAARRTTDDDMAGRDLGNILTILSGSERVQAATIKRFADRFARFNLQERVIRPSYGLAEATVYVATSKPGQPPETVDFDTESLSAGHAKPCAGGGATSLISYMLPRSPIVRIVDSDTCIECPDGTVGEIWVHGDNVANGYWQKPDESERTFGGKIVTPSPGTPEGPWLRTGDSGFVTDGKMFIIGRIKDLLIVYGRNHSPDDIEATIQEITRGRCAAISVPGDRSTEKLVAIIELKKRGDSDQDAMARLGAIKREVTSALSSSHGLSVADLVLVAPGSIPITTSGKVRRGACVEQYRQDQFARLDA
The experiment is described as follows: Fluorescence polarization aasay to screen for inhibitors that compete for the binding of FadD28 to a bisubstrate Measured in Biochemical System Using Plate Reader - 2147-01_Inhibitor_Dose_CherryPick_Activity. The experiment is classed as functional, Mycobacterium tuberculosis H37Rv.

Experiment [13] has as its target T3, Rac GTPase-activating protein 1 (Homo sapiens, UniProt Q9H0H5).
T3 sequence (Q9H0H5 whole entry): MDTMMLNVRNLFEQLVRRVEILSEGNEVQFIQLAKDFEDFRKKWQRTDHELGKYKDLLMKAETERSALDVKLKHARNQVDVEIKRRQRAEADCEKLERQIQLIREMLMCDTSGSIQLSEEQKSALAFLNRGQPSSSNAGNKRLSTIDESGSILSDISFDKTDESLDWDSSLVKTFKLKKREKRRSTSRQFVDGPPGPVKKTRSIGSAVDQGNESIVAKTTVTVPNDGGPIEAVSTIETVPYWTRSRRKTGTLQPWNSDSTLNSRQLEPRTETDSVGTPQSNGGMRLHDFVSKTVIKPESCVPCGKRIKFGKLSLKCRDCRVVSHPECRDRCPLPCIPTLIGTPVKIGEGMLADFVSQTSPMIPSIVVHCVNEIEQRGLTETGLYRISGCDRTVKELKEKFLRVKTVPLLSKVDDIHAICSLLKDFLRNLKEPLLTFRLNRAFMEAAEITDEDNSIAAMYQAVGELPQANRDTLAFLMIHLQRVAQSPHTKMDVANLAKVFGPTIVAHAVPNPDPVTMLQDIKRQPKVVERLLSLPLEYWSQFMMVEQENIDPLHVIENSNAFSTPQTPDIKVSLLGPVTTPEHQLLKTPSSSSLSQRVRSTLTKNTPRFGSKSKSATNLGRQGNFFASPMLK
In words: blockers of MgcRacGAP-driven Rac1 GTP hydrolysis – biochemical, ADP Hunter fluorescence, primary and confirmatory, confirmation (AID 624330). Format: functional.

T1 sequence (P49327 whole entry): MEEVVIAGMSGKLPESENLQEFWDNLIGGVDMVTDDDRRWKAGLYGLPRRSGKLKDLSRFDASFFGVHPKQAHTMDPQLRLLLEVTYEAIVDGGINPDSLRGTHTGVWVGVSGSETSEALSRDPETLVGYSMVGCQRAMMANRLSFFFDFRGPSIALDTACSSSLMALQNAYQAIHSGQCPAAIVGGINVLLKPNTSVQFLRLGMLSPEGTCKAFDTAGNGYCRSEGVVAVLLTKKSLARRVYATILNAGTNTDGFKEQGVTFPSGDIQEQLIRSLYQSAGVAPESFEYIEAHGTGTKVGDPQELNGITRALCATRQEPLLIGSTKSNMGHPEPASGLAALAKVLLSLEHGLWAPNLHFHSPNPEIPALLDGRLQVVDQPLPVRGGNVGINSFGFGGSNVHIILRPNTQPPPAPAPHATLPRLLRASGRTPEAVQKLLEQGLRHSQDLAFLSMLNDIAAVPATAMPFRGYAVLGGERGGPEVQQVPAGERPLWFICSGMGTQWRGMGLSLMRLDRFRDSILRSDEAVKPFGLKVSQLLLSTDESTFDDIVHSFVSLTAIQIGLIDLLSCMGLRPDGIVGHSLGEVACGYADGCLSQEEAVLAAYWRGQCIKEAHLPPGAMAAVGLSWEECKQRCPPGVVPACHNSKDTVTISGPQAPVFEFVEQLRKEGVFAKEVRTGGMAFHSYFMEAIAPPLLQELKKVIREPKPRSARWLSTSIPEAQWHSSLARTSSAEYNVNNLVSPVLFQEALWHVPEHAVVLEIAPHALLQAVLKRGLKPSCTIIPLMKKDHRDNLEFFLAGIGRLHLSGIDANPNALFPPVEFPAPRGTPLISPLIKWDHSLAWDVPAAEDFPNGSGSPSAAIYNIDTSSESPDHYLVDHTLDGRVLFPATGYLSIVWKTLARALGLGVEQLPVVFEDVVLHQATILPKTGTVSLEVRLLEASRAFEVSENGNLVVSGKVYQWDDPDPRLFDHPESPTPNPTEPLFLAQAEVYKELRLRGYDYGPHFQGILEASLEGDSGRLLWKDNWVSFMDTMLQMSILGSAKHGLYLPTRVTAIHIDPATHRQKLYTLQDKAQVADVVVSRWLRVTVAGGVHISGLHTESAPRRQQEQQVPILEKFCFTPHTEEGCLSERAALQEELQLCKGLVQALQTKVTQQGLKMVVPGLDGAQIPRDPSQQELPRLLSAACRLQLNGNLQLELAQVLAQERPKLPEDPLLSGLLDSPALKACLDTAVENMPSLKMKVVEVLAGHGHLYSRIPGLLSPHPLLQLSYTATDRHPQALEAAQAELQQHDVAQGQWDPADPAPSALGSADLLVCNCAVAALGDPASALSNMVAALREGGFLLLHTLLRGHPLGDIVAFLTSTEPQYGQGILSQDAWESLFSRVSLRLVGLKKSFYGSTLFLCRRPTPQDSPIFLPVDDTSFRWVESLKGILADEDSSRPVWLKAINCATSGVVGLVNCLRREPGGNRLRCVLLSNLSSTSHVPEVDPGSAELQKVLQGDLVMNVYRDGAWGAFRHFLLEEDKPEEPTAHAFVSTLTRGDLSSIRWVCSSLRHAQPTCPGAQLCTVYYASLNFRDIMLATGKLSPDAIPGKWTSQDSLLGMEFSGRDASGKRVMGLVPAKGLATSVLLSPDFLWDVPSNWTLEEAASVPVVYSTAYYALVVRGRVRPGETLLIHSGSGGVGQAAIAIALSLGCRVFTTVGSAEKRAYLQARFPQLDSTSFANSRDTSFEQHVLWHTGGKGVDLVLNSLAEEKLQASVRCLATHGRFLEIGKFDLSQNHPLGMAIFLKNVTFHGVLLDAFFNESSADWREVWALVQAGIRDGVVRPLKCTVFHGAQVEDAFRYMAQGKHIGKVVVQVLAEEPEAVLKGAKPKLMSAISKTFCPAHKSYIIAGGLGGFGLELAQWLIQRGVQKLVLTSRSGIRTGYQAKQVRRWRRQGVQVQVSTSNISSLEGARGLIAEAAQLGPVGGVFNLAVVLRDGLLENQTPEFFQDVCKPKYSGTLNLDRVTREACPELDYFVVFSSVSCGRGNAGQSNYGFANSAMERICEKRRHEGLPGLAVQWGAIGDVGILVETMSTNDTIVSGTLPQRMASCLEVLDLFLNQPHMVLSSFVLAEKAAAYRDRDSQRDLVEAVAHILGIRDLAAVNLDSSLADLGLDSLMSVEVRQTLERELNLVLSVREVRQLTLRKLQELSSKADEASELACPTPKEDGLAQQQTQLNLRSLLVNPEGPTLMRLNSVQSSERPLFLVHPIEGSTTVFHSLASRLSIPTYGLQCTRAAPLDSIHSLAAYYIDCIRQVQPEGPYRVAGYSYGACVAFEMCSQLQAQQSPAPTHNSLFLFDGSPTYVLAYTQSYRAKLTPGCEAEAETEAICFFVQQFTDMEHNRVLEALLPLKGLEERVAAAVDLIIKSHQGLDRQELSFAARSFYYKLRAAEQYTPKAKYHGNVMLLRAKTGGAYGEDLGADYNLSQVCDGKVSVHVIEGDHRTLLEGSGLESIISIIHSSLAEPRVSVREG

Take `COc1ccc(N=Nc2nc(-c3ccccc3)c(-c3ccccc3)[nH]2)cc1`: in experiment [1], the IC50 was > 122 µM (inactive).
`O=C(NC(Nc1ncc(S(=O)(=O)c2ccc([N+](=O)[O-])cc2)s1)(C(F)(F)F)C(F)(F)F)c1ccc(Cl)cc1`: the EC50 in [2] was 11 µM (inconclusive); in experiment [3], 52.1 µM (active); in experiment [4], 20.1 µM (active); in experiment [5], 12.4 µM (active); in experiment [6], 83.6 µM (active). Besides, the AC50 is 2.35 µM (active) in [7], 9.01 µM (active) in [10] and 4.29 µM (active) in experiment [11]. Further, the IC50 in [8] was 9.12 µM (active); in experiment [9] it was 7.87 µM (active).
With `Sc1nnc(COc2ccc(Cl)cc2)n1-c1ccccc1`, the IC50 in [1] was > 122 µM (inactive).
Consider `CCN(CC)S(=O)(=O)c1cccc(C(=O)OCC(=O)c2ccc3c(c2)OCCO3)c1`, for which the AC50 in [12] was > 100 µM (inactive).
On the same count and under the same terms, the value for `CCc1cccc2c(C(=O)CN3C(=O)C(=O)N(C4CCCC4)C3=O)c[nH]c12` was 32.3 µM (active).
As to `Cc1ccc(Nc2n[nH]c(=S)s2)cc1`, the half-inhibitory concentration (IC50) in experiment [13] is 72.2 µM (active); in experiment [1], > 122 µM (inactive).
Turning to `CN1C(=O)c2cc(NC(=O)c3ccc(C(F)(F)F)cc3)ccc2OC[C@@H]2O[C@H](CC(=O)NCc3ccc4c(c3)OCO4)CC[C@@H]21`, the AC50 in experiment [7] is 6.22 µM (active); in experiment [10], 28 µM (active); in experiment [11], 12.6 µM (active).
On to `CNC[C@H]1Oc2cc(C#CC3CCCCC3)ccc2S(=O)(=O)N([C@H](C)CO)C[C@@H]1C`, for which the figures for the half-maximal activity concentration (AC50) in experiment [10] and in experiment [11] were 0.433 µM (active) and 28.8 µM (active), respectively.

These data come from ChEMBL document CHEMBL1201862, “PubChem BioAssay data set” (2004).
